Publication PMC9505425, “Targeting of the Mitochondrial TET1 Protein by Pyrrolo[3,2-b]pyrrole Chelators” (International Journal of Molecular Sciences, 2022)
Values joined by “and” are separate entries in the source; they are usually repeats but may differ in a detail not shown here. Identical values can stand only once.

Key:
TET1 protein = biological target: T1, TET1 protein (Homo sapiens, UniProt Q8NFU7); assay: Fluorometric TET hydroxylase activity assay with purified TET1 enzyme; type: biochemical
T1 construct: purchased Active Motif, Carlsbad, CA, USA
Procedure: Figure 4 and Table S1 show the dependence of TET1 activity on the concentration of compound 1.
Compounds 1–6 were tested for the inhibition of the total 5mC hydroxylase TET enzyme using a purified TET1 enzyme (Active Motif, Carlsbad, CA, USA) by a fluorometric TET hydroxylase activity quantification kit (Abcam, Cambridge, UK). A total of 25 µg of purified TET1 protein was diluted in a TET assay buffer in a 5 mL volumetric flask, containing α-ketoglutarate and ferric sulfate. The concentrations of ascorbic acid, α-ketoglutarate, and ferric sulfate in the diluted TET assay buffer were 2, 1, and 0.1 mM, respectively. Tested compounds were dissolved in DMSO to obtain a concentration of 0.01 M. DMSO solutions of compounds 1–6 were then diluted with a TET assay buffer to concentrations of 10^−6, 10^−5, 10^−4, and 10^−3 M (in 10% of DMSO). Subsequently, 50 μL of the final TET assay buffer containing the TET1 protein and 5 μL of chelator’s solution was applied to each sample well. In control wells (TET1 without inhibitors), 5 μL of the final TET assay buffer with 10% DMSO was used instead of chelator’s solution. The final concentrations of chelators in a well plate were 10^−7, 10^−6, 10^−5, 10^−4, and 0 M with less than 1% of final concentration of DMSO. The following steps were performed according to manufacturer’s protocol. The TET1 protein converts methylated substrate to hydroxymethylated products, which could be recognized by a specific antibody. We determined the residual activity of the TET1 protein by measuring a fluorescence intensity on an enzyme-linked immunoabsorbent assay reader (ELISA), Infinite® 200 PRO (Tecan, Switzerland, Switzerland), at an excitation wavelength at 530 nm and an emission wavelength at 590 nm. Each concentration was measured twice within one test, and each test was repeated three times. IC50 values of active inhibitors were determined using GraphPad Prism 8 via nonlinear regression.

H-1299 cells = assay: MTT cytotoxicity assay, H-1299; type: cell-based, human
Procedure: (§1) The effects of the tested compounds 1–6 on HF-P4, U-118 MG, H1299, BT-20, and Caov-3 cell lines were evaluated by the MTT assay during 48 h treatment (Table 2 and Tables S2–S31). In all tested compounds, we recognized a difference in cytotoxicity between healthy cells (HF-P4) and cancer cell lines (BT-20, Caov-3, and H-1299). […] In the case of ovarian cancer, the authors discovered oncogenic and poor prognosis roles of TET1 in epithelial ovarian carcinoma (EOC). TET1 is believed to demethylate the epigenome and activate numerous oncogenic pathways in EOC. The aforementioned study presents a new mechanism where TET1 contributes to tumor development through collaboration with CK2α [21]. The overexpression of the TET1 protein was also found in triple negative breast cancer and was associated with an activation of PI3K/mTOR pathway and decreased overall survival.
(§2) A human glioblastoma cell line (U118-MG) and a human non-small-cell lung carcinoma cell line (H1299) were used for the cytotoxicity assay (MTT). Both cell lines were generously supplied by Dr. M. Masařik, PhD, Department of Pathological physiology, Masaryk University, Czech Republic. U118-MG cells were cultivated under standard conditions in Dulbecco’s modified Eagle’s medium (ATCC, Manassas, VA, USA) supplemented with 10% FBS and streptomycin (100 μg/mL) at 37 °C at a 5% CO2 atmosphere. H1299 cells were cultivated under standard conditions in RPMI 1640 (BioTech, Prague, Czech Republic) medium supplemented with 10% FBS and streptomycin (100 μg/mL) at 37 °C at a 5% CO2 atmosphere.
(§3) For the cytotoxicity assay, we used the following cell lines: human glioblastoma cell line U118-MG, human mammary gland/breast cell line BT-20, human ovary adenocarcinoma cell line Caov-3, and non-small-cell lung carcinoma H-1299. As previously mentioned, these cell lines contain a high level of the TET1 protein, which corresponds to a lower overall survival. In addition to these cell cultures, we used the human dermal fibroblast cell line HF-P4 as a healthy control. Determination of cytotoxicity was performed using the MTT [3-(4,5-dimethylthiazol-2-yl)-2,5-diphenyltetrazolium bromide] colorimetric assay. Viable cells from each cell line were cultured in 96-well plates (VWR, Stříbrná Skalice, Czech Republic) at a density of 1.0 × 10^5 cells per well and allowed to grow for 24 h in 200 μL of recommended medium. After a 1-day incubation, the medium was replaced with solutions of compounds 1–6 at concentration ranges of 0.1–20 μM. Each concentration was measured four times within one test, and the entire test was repeated three times. Tested compounds 1–6 were dissolved in DMSO and then diluted with corresponding medium to a final volume of 200 μL (maximum 1% DMSO). After 48 h exposure, cells were treated with 175 μL of MTT solution (P-LAB, Prague, Czech Republic) for 2 h. In the next step, MTT solution was removed, and 125 μL of DMSO (Penta, Prague, Czech Republic) was added to solubilize dark crystals of formazan formed in intact cells, and absorbance was measured at 570 nm by the enzyme-linked immunoabsorbent assay reader Infinite® 200 PRO (Tecan, Männedorf, Switzerland). The final DMSO concentration was smaller than 1% (v/v). The absorbance of untreated cells was considered 100%, and IC50 values were calculated by the GraphPad Prism 8 software. As a parameter for cytotoxicity, we used a concentration that inhibits 50% of cell growth (IC50).

U-118 MG cells = assay: MTT cytotoxicity assay, U-118 MG; type: cell-based, human; settings: 48 h
Procedure: as §1, §2, §3

T1 sequence (Q8NFU7 whole entry): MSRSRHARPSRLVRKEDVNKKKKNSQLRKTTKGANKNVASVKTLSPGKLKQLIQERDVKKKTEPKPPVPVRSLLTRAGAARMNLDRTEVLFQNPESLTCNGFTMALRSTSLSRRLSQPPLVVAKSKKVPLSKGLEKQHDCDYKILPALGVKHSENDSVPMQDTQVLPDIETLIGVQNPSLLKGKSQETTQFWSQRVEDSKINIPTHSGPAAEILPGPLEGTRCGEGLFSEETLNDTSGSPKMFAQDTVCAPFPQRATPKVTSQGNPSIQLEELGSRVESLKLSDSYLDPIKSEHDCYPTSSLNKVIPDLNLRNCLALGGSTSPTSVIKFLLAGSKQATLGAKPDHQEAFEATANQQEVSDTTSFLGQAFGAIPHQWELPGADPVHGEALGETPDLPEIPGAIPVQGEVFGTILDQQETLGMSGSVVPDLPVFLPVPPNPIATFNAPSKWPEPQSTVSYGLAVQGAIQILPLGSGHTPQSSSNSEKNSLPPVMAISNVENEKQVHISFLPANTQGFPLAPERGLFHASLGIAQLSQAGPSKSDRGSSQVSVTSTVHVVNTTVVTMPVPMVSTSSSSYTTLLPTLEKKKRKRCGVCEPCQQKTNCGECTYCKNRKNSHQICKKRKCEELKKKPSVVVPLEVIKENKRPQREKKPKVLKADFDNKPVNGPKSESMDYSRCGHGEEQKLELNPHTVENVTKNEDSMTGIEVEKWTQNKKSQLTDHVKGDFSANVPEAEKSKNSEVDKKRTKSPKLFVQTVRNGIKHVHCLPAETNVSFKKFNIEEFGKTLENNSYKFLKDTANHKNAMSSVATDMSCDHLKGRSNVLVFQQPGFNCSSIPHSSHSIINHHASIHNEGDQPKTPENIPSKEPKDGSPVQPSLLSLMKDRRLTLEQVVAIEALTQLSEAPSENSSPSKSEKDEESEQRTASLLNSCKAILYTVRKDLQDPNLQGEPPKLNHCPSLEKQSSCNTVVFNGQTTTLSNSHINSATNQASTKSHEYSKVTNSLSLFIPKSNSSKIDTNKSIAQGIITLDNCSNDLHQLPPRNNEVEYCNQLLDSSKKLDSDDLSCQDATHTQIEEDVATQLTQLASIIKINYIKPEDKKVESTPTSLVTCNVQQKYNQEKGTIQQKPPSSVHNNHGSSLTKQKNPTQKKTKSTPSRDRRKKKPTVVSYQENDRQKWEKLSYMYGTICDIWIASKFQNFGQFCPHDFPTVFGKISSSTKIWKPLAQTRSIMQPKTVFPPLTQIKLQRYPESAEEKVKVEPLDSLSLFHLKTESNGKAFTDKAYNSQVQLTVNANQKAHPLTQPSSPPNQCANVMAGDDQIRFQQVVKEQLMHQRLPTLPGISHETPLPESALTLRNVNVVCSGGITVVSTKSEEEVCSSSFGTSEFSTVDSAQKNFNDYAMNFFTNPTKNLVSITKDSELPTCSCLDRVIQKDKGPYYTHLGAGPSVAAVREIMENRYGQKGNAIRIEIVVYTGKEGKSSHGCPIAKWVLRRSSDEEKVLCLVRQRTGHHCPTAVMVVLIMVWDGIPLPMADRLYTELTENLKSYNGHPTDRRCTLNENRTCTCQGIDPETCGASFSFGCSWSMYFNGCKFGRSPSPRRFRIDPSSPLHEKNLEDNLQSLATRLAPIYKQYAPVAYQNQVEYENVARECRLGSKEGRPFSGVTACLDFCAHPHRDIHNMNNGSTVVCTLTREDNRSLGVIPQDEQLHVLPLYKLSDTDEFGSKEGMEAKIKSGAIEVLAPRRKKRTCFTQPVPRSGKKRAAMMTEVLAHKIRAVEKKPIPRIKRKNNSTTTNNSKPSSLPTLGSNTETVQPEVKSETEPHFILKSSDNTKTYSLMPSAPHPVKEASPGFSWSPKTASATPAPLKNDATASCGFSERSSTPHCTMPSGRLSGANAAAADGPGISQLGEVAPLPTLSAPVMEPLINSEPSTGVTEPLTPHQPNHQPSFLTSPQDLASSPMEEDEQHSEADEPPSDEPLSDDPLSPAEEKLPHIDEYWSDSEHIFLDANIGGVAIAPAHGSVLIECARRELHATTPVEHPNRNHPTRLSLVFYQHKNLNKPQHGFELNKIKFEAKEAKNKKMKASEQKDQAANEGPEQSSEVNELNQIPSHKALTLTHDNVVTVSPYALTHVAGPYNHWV

Cc1ccc(-n2c(-c3ccc(C(=O)NN)cc3)cc3c2cc(-c2ccc(C(=O)NN)cc2)n3-c2ccc(C)cc2)cc1 [Compound 1]
average residual TET activity (%) (TET1 protein; Log c 4): 5.108%
average residual TET activity (%) (TET1 protein; Log c 5): 19.97%
average residual TET activity (%) (TET1 protein; Log c 6): 56.08%
average residual TET activity (%) (TET1 protein; Log c 7): 82.59%
Cell viability % (H-1299 cells; H-1299, 100 nM, 48 h, repeats, 0.1 µM): 74.42% and 77.2%
Cell viability % (H-1299 cells; H-1299, 500 nM, 48 h, repeats, 0.5 µM): 114.5756% and 80.35% and 108.7959%
Cell viability % (H-1299 cells; H-1299, 750 nM, 48 h, repeats, 0.75 µM): 97.3% and 84.13% and 122.0664%
Cell viability % (H-1299 cells; H-1299, 1 uM, 48 h, repeats, 1 µM): 81.23% and 63.3%
Cell viability % (H-1299 cells; H-1299, 2.5 uM, 48 h, repeats, 2.5 µM): 76.07% and 72.39%
Cell viability % (H-1299 cells; H-1299, 5 uM, 48 h, repeats, 5 µM): 61.74% and 69.23%
Cell viability % (H-1299 cells; H-1299, 7.5 uM, 48 h, repeats, 7.5 µM): 36.84% and 36.67%
Cell viability % (H-1299 cells; H-1299, 10 uM, 48 h, repeats, 10 µM): 36.64% and 31.8986%
Cell viability % (H-1299 cells; H-1299, 15 uM, 48 h, repeats, 15 µM): 23.04% and 23.96%
Cell viability % (H-1299 cells; H-1299, 20 uM, 48 h, repeats, 20 µM): 17.01% and 14.68%
viability at 0.1 µM (H-1299 cells; Homo sapiens, NCI-H1299, 48 h, H-1299, 100 nM, repeats, read-out: Cell viability %): 86.7%
viability at 1 µM (H-1299 cells; Homo sapiens, NCI-H1299, 48 h, H-1299, 1 uM, repeats, read-out: Cell viability %): 69.9%
viability at 2.5 µM (H-1299 cells; Homo sapiens, NCI-H1299, 48 h, H-1299, 2.5 uM, repeats, read-out: Cell viability %): 68%
viability at 5 µM (H-1299 cells; Homo sapiens, NCI-H1299, 48 h, H-1299, 5 uM, repeats, read-out: Cell viability %): 57.7%
viability at 7.5 µM (H-1299 cells; Homo sapiens, NCI-H1299, 48 h, H-1299, 7.5 uM, repeats, read-out: Cell viability %): 38.4%
viability at 10 µM (H-1299 cells; Homo sapiens, NCI-H1299, 48 h, H-1299, 10 uM, repeats, read-out: Cell viability %): 35.2%
viability at 15 µM (H-1299 cells; Homo sapiens, NCI-H1299, 48 h, H-1299, 15 uM, repeats, read-out: Cell viability %): 23.9%
viability at 20 µM (H-1299 cells; Homo sapiens, NCI-H1299, 48 h, H-1299, 20 uM, repeats, read-out: Cell viability %): 19.2%
IC50 (H-1299 cells; Homo sapiens, NCI-H1299, MTT, 48 h): 6.89 µM
viability at 0.1 µM (U-118 MG cells; Homo sapiens, U-118-MG, U-118 MG, 100 nM, repeats, read-out: Cell viability %): 74.9%
viability at 0.5 µM (U-118 MG cells; Homo sapiens, U-118-MG, U-118 MG, 500 nM, repeats, read-out: Cell viability %): 81.2%
viability at 0.75 µM (U-118 MG cells; Homo sapiens, U-118-MG, U-118 MG, 750 nM, repeats, read-out: Cell viability %): 75.3%
viability at 1 µM (U-118 MG cells; Homo sapiens, U-118-MG, U-118 MG, 1 uM, repeats, read-out: Cell viability %): 61.6%
viability at 2.5 µM (U-118 MG cells; Homo sapiens, U-118-MG, U-118 MG, 2.5 uM, repeats, read-out: Cell viability %): 59.8%
viability at 5 µM (U-118 MG cells; Homo sapiens, U-118-MG, U-118 MG, 5 uM, repeats, read-out: Cell viability %): 64.5%
viability at 7.5 µM (U-118 MG cells; Homo sapiens, U-118-MG, U-118 MG, 7.5 uM, repeats, read-out: Cell viability %): 65.9%
viability at 10 µM (U-118 MG cells; Homo sapiens, U-118-MG, U-118 MG, 10 uM, repeats, read-out: Cell viability %): 49.8%
viability at 15 µM (U-118 MG cells; Homo sapiens, U-118-MG, U-118 MG, 15 uM, repeats, read-out: Cell viability %): 52.9%
viability at 20 µM (U-118 MG cells; Homo sapiens, U-118-MG, U-118 MG, 20 uM, repeats, read-out: Cell viability %): 32.4%
IC50 (U-118 MG cells; Homo sapiens, U-118-MG, MTT): > 20 µM
Cell viability % (U-118 MG cells; U-118 MG, 100 nM, repeats, 0.1 µM): 89.42% and 92.96%
Cell viability % (U-118 MG cells; U-118 MG, 500 nM, repeats, 0.5 µM): 77.57% and 78.28%
Cell viability % (U-118 MG cells; U-118 MG, 750 nM, repeats, 0.75 µM): 75.76% and 76.03%
Cell viability % (U-118 MG cells; U-118 MG, 1 uM, repeats): 65.25% and 66.5%
Cell viability % (U-118 MG cells; U-118 MG, 2.5 uM, repeats): 71.64% and 61.0448%
Cell viability % (U-118 MG cells; U-118 MG, 5 uM, repeats): 72.2848% and 61.2%
Cell viability % (U-118 MG cells; U-118 MG, 7.5 uM, repeats): 73.35% and 73.21%
Cell viability % (U-118 MG cells; U-118 MG, 10 uM, repeats): 65.4465% and 62.16%
Cell viability % (U-118 MG cells; U-118 MG, 15 uM, repeats): 49.75% and 52.18%
Cell viability % (U-118 MG cells; U-118 MG, 20 uM, repeats): 38.37% and 42.77%
